Test results published in ChEMBL document CHEMBL5346971, “Discovery of the First Irreversible HDAC6 Isoform Selective Inhibitor with Potent Anti-Multiple Myeloma Activity” (J Med Chem, 2023).
Calls of active or inactive are those of the source. No cut-off for these calls is given here.

Assays:
[1] = target: T1, Class 1 histone deacetylase (Homo sapiens) (UniProt Q13547+O15379+Q92769+Q9BY41); test: Inhibition of class 1 HDAC in human A549 cells assessed as acetyl histone H4 level at 2 uM incubated for 5 hrs by western blot analysis relative to control; assay type: cell-based
[2] = target: T1, Class 1 histone deacetylase (Homo sapiens); test: Irreversible inhibition of class 1 HDAC in human A549 cells assessed as acetyl histone H3 level at 0.4 uM incubated for 5 hrs followed by drug wash-out for 24 hrs by western blot analysis relative to control; assay type: cell-based
[3] = target: T2, Protein deacetylase HDAC6 (Homo sapiens) (UniProt Q9UBN7); test: Irreversible inhibition of HDAC6 in human A549 cells assessed as acetyl alpha-tubulin level at 0.4 uM incubated for 5 hrs followed by drug wash-out for 1 hr by western blot analysis relative to control; assay type: cell-based
T2 sequence (whole entry): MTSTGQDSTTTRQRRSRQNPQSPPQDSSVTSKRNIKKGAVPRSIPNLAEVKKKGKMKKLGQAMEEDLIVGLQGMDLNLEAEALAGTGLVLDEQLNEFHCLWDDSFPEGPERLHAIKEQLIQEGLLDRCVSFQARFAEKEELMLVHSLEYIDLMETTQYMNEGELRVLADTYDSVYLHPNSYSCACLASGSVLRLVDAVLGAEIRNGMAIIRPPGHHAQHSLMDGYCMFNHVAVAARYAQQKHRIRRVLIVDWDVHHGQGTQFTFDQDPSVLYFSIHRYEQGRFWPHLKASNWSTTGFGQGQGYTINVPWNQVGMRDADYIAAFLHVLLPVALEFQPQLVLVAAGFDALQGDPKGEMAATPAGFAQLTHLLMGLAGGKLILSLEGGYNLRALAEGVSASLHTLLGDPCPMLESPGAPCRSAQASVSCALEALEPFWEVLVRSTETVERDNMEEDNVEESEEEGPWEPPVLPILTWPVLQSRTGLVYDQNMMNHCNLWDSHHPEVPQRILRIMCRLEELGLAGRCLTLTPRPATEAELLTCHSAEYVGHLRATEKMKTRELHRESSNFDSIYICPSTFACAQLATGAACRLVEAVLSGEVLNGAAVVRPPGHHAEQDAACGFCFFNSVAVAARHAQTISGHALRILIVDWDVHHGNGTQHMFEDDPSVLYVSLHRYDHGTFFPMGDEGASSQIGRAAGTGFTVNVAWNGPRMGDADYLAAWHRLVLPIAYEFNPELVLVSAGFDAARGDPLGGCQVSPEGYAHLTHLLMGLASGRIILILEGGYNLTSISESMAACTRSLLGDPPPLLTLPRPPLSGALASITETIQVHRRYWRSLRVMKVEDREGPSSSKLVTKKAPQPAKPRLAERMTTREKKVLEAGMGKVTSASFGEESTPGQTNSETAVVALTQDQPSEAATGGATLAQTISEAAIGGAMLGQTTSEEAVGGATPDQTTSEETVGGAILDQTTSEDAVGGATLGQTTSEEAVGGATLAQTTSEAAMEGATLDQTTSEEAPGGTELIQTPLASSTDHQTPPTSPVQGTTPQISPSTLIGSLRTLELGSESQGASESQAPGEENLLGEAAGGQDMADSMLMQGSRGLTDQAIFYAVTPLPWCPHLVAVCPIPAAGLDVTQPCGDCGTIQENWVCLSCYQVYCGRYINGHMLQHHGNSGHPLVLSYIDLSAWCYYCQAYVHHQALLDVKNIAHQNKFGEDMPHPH

Histone deacetylase 8 = target: T3, Histone deacetylase 8 (Homo sapiens, UniProt Q9BY41); test: Inhibition of C-terminal His-tagged human full length recombinant HDAC8 (1 to 377 residues) expressed in Sf9 cells using Boc-Lys(trifluoroacety1)-AMC as substrate preincubated with enzyme for 1 hr followed by substrate addition and measured after 30 mins by fluorescence based analysis
T3 sequence (Q9BY41 whole entry): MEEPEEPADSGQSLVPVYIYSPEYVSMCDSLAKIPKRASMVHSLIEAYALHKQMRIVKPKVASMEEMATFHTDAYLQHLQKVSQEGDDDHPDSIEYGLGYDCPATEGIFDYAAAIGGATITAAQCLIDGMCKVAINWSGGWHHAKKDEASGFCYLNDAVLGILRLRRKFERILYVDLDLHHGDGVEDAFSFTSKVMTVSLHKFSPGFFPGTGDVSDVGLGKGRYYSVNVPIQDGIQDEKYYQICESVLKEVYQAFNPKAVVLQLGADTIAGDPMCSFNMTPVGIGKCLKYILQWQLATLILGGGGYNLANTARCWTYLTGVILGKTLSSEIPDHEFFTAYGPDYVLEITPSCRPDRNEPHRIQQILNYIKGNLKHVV

[4] = target: T4, Polyamine deacetylase HDAC10 (Homo sapiens, UniProt Q969S8); test: Inhibition of N-terminal FLAG-tagged human recombinant HDAC10 (2 to 631 residues) expressed in baculovirus-infected Sf9 cells using Acetyl-Arg-His-Lys(acety1)-Lys-(acety1)-AMC as substrate peincubated with enzyme for 1 hr followed by substrate addition and measured after 30 mins by fluorescence based analysis
T4 sequence (Q969S8 whole entry): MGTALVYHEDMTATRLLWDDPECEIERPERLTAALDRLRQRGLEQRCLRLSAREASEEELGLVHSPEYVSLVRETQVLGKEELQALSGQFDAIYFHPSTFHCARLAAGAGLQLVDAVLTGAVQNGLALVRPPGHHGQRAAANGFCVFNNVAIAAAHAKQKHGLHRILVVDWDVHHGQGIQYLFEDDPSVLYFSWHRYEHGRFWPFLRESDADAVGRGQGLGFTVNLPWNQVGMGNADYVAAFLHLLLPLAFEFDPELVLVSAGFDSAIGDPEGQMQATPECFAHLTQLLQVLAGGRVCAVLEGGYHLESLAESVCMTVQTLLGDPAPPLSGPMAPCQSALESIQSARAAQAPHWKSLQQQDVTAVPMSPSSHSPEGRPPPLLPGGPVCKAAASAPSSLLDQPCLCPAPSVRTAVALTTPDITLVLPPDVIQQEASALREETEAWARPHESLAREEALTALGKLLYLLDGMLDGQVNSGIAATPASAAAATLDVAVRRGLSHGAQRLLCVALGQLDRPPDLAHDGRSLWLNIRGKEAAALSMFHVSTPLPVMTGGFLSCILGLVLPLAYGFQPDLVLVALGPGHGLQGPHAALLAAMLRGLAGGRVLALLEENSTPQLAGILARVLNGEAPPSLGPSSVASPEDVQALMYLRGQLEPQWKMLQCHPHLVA

U-266 = test: Antiproliferative activity against human U-266 cells assessed as inhibition of cell proliferation incubated for 48 hrs by CCK8 assay; assay type: functional, cell-based; conditions: U-266, 48 h
MM1.S = test: Antiproliferative activity against human MM1.S cells assessed as inhibition of cell proliferation incubated for 48 hrs by CCK8 assay; assay type: functional, cell-based
RPMI-8226 [5] = test: Induction of apoptosis in human RPMI-8226 cells assessed as proportion of necrotic cells at 0.1 uM incubated for 24 hrs by AnnexinV-FITC/PI staining based flow cytometry (reference value: 0.49%); assay type: functional, cell-based
RPMI-8226 [6] = test: Induction of apoptosis in human RPMI-8226 cells assessed as proportion of early apoptotic cells at 0.5 uM incubated for 24 hrs by AnnexinV-FITC/PI staining based flow cytometry (reference value: 10.63%); assay type: functional, cell-based

T1 sequence (O15379 whole entry, looked up, one chain of several): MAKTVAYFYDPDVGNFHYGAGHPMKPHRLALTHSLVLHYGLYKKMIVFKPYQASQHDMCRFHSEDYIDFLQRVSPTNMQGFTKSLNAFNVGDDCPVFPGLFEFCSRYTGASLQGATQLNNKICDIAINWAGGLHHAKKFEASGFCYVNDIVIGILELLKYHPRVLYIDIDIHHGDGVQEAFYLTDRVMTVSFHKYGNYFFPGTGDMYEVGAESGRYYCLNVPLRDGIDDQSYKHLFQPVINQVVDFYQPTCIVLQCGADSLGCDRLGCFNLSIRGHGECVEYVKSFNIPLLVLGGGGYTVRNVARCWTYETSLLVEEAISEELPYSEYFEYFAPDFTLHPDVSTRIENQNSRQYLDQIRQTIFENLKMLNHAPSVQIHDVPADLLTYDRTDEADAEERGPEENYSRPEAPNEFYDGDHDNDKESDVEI
T1 sequence (Q13547 whole entry, looked up, one chain of several): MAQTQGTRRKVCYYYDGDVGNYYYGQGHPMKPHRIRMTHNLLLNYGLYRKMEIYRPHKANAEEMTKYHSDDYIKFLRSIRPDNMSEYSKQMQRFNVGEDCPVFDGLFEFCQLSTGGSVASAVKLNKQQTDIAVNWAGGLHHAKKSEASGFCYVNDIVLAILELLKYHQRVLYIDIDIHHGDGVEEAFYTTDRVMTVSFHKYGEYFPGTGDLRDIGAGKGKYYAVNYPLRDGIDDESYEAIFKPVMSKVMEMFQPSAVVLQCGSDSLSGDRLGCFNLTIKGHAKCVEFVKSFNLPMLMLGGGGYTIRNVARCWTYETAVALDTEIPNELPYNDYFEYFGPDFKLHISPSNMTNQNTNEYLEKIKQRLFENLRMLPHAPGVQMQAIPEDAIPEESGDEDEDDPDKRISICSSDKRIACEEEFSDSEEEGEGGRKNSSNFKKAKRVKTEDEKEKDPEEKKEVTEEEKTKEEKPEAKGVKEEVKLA
T1 sequence (Q92769 whole entry, looked up, one chain of several): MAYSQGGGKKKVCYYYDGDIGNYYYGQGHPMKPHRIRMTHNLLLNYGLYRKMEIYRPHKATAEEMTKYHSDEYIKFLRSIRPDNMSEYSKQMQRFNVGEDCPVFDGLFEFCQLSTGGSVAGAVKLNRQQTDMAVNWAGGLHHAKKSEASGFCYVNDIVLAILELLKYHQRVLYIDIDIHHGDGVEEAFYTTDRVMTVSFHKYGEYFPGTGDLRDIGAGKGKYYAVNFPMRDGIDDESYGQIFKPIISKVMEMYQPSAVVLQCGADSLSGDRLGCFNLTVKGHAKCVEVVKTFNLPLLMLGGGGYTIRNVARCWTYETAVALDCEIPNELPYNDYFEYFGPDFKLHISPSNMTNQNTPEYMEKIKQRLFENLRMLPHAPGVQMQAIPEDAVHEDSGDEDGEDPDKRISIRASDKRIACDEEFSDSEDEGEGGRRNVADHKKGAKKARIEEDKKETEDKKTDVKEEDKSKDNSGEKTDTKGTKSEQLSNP

fold change (FC) [1]: 1.6 | fold change (FC) [2]: 1.2 | fold change (FC) [3]: 5.3 | IC50 (Histone deacetylase 8): 2.1 µM | IC50 [4]: 1.8 µM | IC50 (MM1.S): 0.42 µM
SMILES: O=C(NO)c1ccc(COc2no[n+]([O-])c2S(=O)(=O)c2ccccc2)cc1
IC50 (U-266): 0.7 µM | Activity (RPMI-8226 [5]): Active | Activity (RPMI-8226 [6]): Active
